The record followed here is patent publication US12448391B2, “Bicyclic derivatives for treating endoparasites” (Elanco Tiergesundheit AG, priority 2019, dated 2025).

The subject of assay [1] is Caenorhabditis elegans. Description: C. elegans development assay (Ce DA). Conditions: 48 h, read-out: EC90 (motility reduction).
Protocol: Caenorhabditis elegans (Ce): C. elegans development assay (Ce DA) measures the effect of compounds on developing nematodes. Eggs of C. elegans are deposited in a 384 well plate together with food (E. coli) and the treatment formulated in DMSO. Plates are incubated at 25° C. for 48 h to allow the development of nematodes up to the L4-stage. The effect of compounds is measured as motility reduction. Efficacy is expressed in % motility reduction compared to negative controls.
Assay [2] deals with H. contortus larvae. Description: H. contortus Larval Development Assay (Hc LDA). Conditions: Haemonchus contortus, read-out: EC50 (motility inhibition).
Protocol: Ruminant Gastrointestinal (H. contortus Larval Development Assay (Hc LDA)):
H.c. eggs isolated from lamb fecal matter are allowed to hatch overnight. Test compounds are diluted in DMSO and added to a 96-well plate containing appropriate media. H.c. larvae are added to each well and plates are incubated for the desired time(s). Motility is assessed using an LCD camera imaging system. Percent motility inhibition values are generated relative to the average of the DMSO-only wells.
The test system of assay [3] is D. immitis microfilariae. Description: Dog heart worm microfilariae motility assay. The note with it: Dirofilaria immitis, read-out: EC50 (motility inhibition). It is filed as cell-based.

Take `COC(C)c1c(C(=O)NN2CCOc3ccccc32)cnc2c(-c3cc(F)cc(F)c3F)cccc12` (centres unmarked) [Example 5.55, N-(2,3-dihydro-1,4-benzoxazin-4-yl)-4-(1-methoxyethyl)-8-(2,3,5-trifluorophenyl)quinoline-3-carboxamide]: the concentration for an effect of 90% (EC90) in assay [1] was < 1 µg/mL.

`O=C(NN1CCOc2ccccc21)c1cnc2c(-c3c(F)c(F)cc(F)c3F)cccc2c1N1CCOCC1` [Example 5.57, N-(2,3-dihydro-1,4-benzoxazin-4-yl)-4-morpholino-8-(2,3,5,6-tetrafluorophenyl)quinoline-3-carboxamide]: the concentration for an effect of 90% (EC90) in assay [1] is < 1 µg/mL.

As to `O=C(NN1CCOc2ccccc21)c1cnc2c(-c3cc(F)cc(F)c3F)cccc2c1C1CC1` [Example 5.36, 4-cyclopropyl-N-(2,3-dihydro-1,4-benzoxazin-4-yl)-8-(2,3,5-trifluorophenyl)quinoline-3-carboxamide], the EC90 in assay [1] is < 1 µg/mL. The same measure, in the same setting: for `O=C(NN1CCOc2ccccc21)c1cnc2c(-c3cc(Cl)c(F)c(Cl)c3F)c(F)ccc2c1C1CC1` [Example 5.58, 4-cyclopropyl-8-(3,5-dichloro-2,4-difluoro-phenyl)-N-(2,3-dihydro-1,4-benzoxazin-4-yl)-7-fluoro-quinoline-3-carboxamide] the value was < 1 µg/mL. The same measure, in the same setting: the same measure for `O=C(NN1CCOc2ccccc21)c1cnc2c(-c3cc(F)nc(F)c3F)cccc2c1N1CCOCC1` [Example 5.49, N-(2,3-dihydro-1,4-benzoxazin-4-yl)-4-morpholino-8-(2,3,6-trifluoro-4-pyridyl)quinoline-3-carboxamide]: < 1 µg/mL; for `O=C(NN1CCOc2ccccc21)c1cnc2c(-c3cc(Cl)c(F)c(Cl)c3F)c(F)ccc2c1N1CCOCC1` [Example 5.48, 8-(3,5-dichloro-2,4-difluoro-phenyl)-N-(2,3-dihydro-1,4-benzoxazin-4-yl)-7-fluoro-4-morpholino-quinoline-3-carboxamide]: < 1 µg/mL; for `O=C(NN1CCOc2ccccc21)c1cnc2c(-c3cc(Cl)cc(Cl)c3F)c(F)ccc2c1N1CCOCC1` [Example 5.47, 8-(3,5-dichloro-2-fluoro-phenyl)-N-(2,3-dihydro-1,4-benzoxazin-4-yl)-7-fluoro-4-morpholino-quinoline-3-carboxamide]: < 1 µg/mL. On to `CN(C)c1c(C(=O)NN2CCOc3ccccc32)ccc2c(-c3cc(Cl)cc(Cl)c3)cccc12` [Example 4.1, 5-(3,5-dichlorophenyl)-N-(2,3-dihydro-1,4-benzoxazin-4-yl)-1-(dimethylamino)naphthalene-2-carboxamide], for which the half-maximal effective concentration (EC50) in assay [2] was < 1 µg/mL; in assay [3], < 0.1 µg/mL. For `O=C(NN1CCOc2ccccc21)c1cnc2c(-c3cc(Cl)c(F)c(Cl)c3)nccc2c1N1CCOCC1` [Example 2.8, 8-(3,5-dichloro-4-fluoro-phenyl)-N-(2,3-dihydro-1,4-benzoxazin-4-yl)-4-morpholino-1,7-naphthyridine-3-carboxamide], the EC50 in assay [2] is < 1 µg/mL; in assay [3] it was < 0.1 µg/mL. As for `O=C(NN1CCOc2ccccc21)c1cnc2c(-c3cc(Cl)cc(Cl)c3)cncc2c1N1CCOCC1` [Example 7.1, 8-(3,5-dichlorophenyl)-N-(2,3-dihydro-1,4-benzoxazin-4-yl)-4-morpholino-1,6-naphthyridine-3-carboxamide], the concentration giving a half-maximal response (EC50) in assay [2] is < 1 µg/mL; in assay [3] it was < 0.1 µg/mL. As for `O=C(NN1CCOc2ccccc21)c1cnc2c(-c3cc(Cl)cc(C(F)(F)F)n3)cccc2c1N1CCOCC1` [Example 5.22, 8-[4-chloro-6-(trifluoromethyl)-2-pyridyl]-N-(2,3-dihydro-1,4-benzoxazin-4-yl)-4-morpholino-quinoline-3-carboxamide], the results for the EC50 in assay [2] and in assay [3] were < 1 µg/mL and < 0.1 µg/mL, respectively. Take `CN(C)c1c(C(=O)NN2CCOc3ccccc32)cnc2c(-c3cc(Cl)cc(Cl)c3)nccc12` [Example 2.1, 8-(3,5-dichlorophenyl)-N-(2,3-dihydro-1,4-benzoxazin-4-yl)-4-(dimethylamino)-1,7-naphthyridine-3-carboxamide]: the half-maximal effective concentration (EC50) is < 1 µg/mL in assay [2] and < 0.1 µg/mL in assay [3]. The like results for `O=C(NN1CCOc2ccccc21)c1cnc2c(-c3cc(Cl)cc(Cl)c3)cccc2c1N1CCOCC1` [Example 5.3, 8-(3,5-dichlorophenyl)-N-(2,3-dihydro-1,4-benzoxazin-4-yl)-4-morpholino-quinoline-3-carboxamide] were, in that order, < 1 µg/mL and < 0.1 µg/mL.

For the compound `O=C(NN1CCOc2ccccc21)c1cnc2c(-c3cc(F)cc(F)c3F)cccc2c1N1CCOCC1` [Example 5.6, N-(2,3-dihydro-1,4-benzoxazin-4-yl)-4-morpholino-8-(2,3,5-trifluorophenyl)quinoline-3-carboxamide], the concentration giving a half-maximal response (EC50) in assay [2] is < 1 µg/mL; in assay [3] it was < 0.1 µg/mL. Regarding `O=C(NN1CCOc2ccccc21)c1cnc2c(-c3cncc(Cl)n3)cccc2c1N1CCOCC1` [Example 5.17, 8-(6-chloropyrazin-2-yl)-N-(2,3-dihydro-1,4-benzoxazin-4-yl)-4-morpholino-quinoline-3-carboxamide], the EC50 in assay [2] was < 1 µg/mL; in assay [3], < 0.1 µg/mL.

As to `O=C(NN1CCOc2ccccc21)c1cnc2c(-c3cc(Cl)cc(Cl)c3)ncnc2c1N1CCOCC1` [Example 6.1, 4-(3,5-dichlorophenyl)-N-(2,3-dihydro-1,4-benzoxazin-4-yl)-8-morpholino-pyrido[3,2-d]pyrimidine-7-carboxamide], the EC50 in assay [2] was < 1 µg/mL; in assay [3], < 0.1 µg/mL. As for `O=C(NN1CCOc2ccccc21)c1cnc2c(-c3cc(F)c(F)c(F)c3F)cccc2c1N1CCOCC1` [Example 5.20, N-(2,3-dihydro-1,4-benzoxazin-4-yl)-4-morpholino-8-(2,3,4,5-tetrafluorophenyl)quinoline-3-carboxamide], the EC50 in assay [2] is < 1 µg/mL; in assay [3], < 0.1 µg/mL. The like results for `O=C(NN1CCOc2ccccc21)c1cnc2c(-c3cc(Cl)cc(Cl)c3)nccc2c1N1CCOCC1` [Example 2.3, 8-(3,5-dichlorophenyl)-N-(2,3-dihydro-1,4-benzoxazin-4-yl)-4-morpholino-1,7-naphthyridine-3-carboxamide] were, in that order, < 1 µg/mL and < 0.1 µg/mL. `O=C(NN1CCOc2ccccc21)c1cnc2c(-c3cc(Cl)cnc3F)cccc2c1N1CCOCC1` [Example 5.14, 8-(5-chloro-2-fluoro-3-pyridyl)-N-(2,3-dihydro-1,4-benzoxazin-4-yl)-4-morpholino-quinoline-3-carboxamide]: the EC50 in assay [2] is < 1 µg/mL; in assay [3], < 0.1 µg/mL. On the same counts, the results for `CN(C)c1c(C(=O)NN2CCCc3ccccc32)cnc2c(-c3cc(Cl)cc(Cl)c3)nccc12` [Example 2.2, 8-(3,5-dichlorophenyl)-N-(3,4-dihydro-2H-quinolin-1-yl)-4-(dimethylamino)-1,7-naphthyridine-3-carboxamide] are < 1 µg/mL and < 0.1 µg/mL. On the same counts, the results for `O=C(NN1CCOc2ccccc21)c1cnc2c(-c3cncc(F)c3Cl)cccc2c1N1CCOCC1` [Example 5.21, 8-(4-chloro-5-fluoro-3-pyridyl)-N-(2,3-dihydro-1,4-benzoxazin-4-yl)-4-morpholino-quinoline-3-carboxamide] are < 1 µg/mL and < 0.1 µg/mL.

Usually EC90 stands for the concentration at which the effect reaches the 90% level. In general, EC50 refers to the midpoint of the concentration-response curve.
